Test results published in patent publication US20070232577A1, “Synthetic pentacyclic triterpenoids and derivatives of betulinic acid and betulin” (Advanced Life Sciences, Inc., priority 2006, published 2007).
Converted amounts (≈) assume the structure as drawn.

Columns and labels:
[1] = tested on: HT-29 (colon carcinoma); test: MTS cell viability assay, HT-29; type: cell-based; conditions: Homo sapiens, 72 h
Protocol: (§1) All treatments were performed in triplicate. […] Cells were incubated at 37° C. for 72 h.

[2] = tested on: SK-MEL-2 (melanoma); test: MTS cell viability assay, SK-MEL-2; conditions: Homo sapiens, SK-MEL-2, 72 h, read-out: IC50 SK-MEL-2
Protocol: (§5) Cells were plated, the evening before treatment, for each treatment on 96-well plates (1×10^4 cells/well) in 100 μL volume per well. Drug solutions were prepared by diluting each test compound in DSMO (10 mM) with the appropriate cell growth media for each individual cell line, or in “Universal Media” if several cell lines were to be assayed in parallel, immediately prior to cell treatment. Universal Media consisted of 5 mL sodium pyruvate (100×liquid stock, CellGro), 5 mL glucose (100×, 45% liquid stock, CellGro), 5 mL Penicillin/Streptomycin (100×liquid stock, CellGro), 10 mL sodium bicarbonate (50×liquid stock, CellGro), 25 mL Fetal Calf Serum, 1.25 mL insulin (4 mg/mL, Gibco) and 449 mL RPMI media with 2 mM glutamine for a total volume of 500 mL. Cells were treated by aspirating media from each well and adding 80 μL of each drug solution to the attached cells. All treatments were performed in triplicate. Growth media (80 μL) were added to 3 blank wells (no cells) to measure background from the growth media Growth media alone (no DMSO or test compond) was added to 2 wells containing cells to measure the baseline MTS activity and vehicle (DMSO) control solutions were also included to monitor basal toxicity from DMSO. Cells were incubated at 37° C. for 72 h. MTS reagent (per 96-well plate) were prepared by combining 2 mL of MTS working solution (Cell Titer AQueous Non-Radioactive Cell Proliferation Assay, Promega, cat#G1112), 100 μL of 0.92 mg/mL phenazine methosulfate/Dulbecco's PBS and 2.1 mL growth media. MTS reagent (40 μL) were added to each well and incubated at 37° C. for 1.5 to 4 h. Plates were gently shaken by hand until solution in each well appeared homogenous. Absorbances at 490 nm were measured on a plate reader at multiple time points following the addition of MTS reagent for each plate. Triplicate absorbance (490 nm) measurements were averaged following background (no cell) subtraction for each drug concentration. Percent Cell Viability was calculated for each drug concentration using the following equation: {[Absorbances(drug treated)]/[Absorbances(DMSO treated)]}×100%
(§6) Percent viability (y-axis) was plotted against drug concentration (x-axis) and the resulting graph was used to determine the 50% inhibitory concentration (IC50) for each drug.

[3] = tested on: LN-229 (glioblastoma); test: MTS cell viability assay, LN-229; type: cell-based; conditions: Homo sapiens, 72 h
Protocol: as §1

[4] = tested on: Daoy; test: Caspase activation assay, Daoy; type: cell-based
Protocol: (§2) All treatments were performed in duplicate. […] Cells were incubated at 37° C. for 8 h. Caspase assay reagent (per 96-well plate) was prepared according to manufacturer's instructions (Homogeneous Caspases Assay, fluorometric, Roche) by combining 6.3 mL Incubation Buffer with 0.7 mL of Substrate Stock Solution. Caspase assay reagent (70 μL) was added to each well; the plate was gently shaken by hand for 15-20 seconds and incubated at 37° C. for 4 h.
(§3) Fluorescent emission was measured at 535 nm on a plate reader using the “homogeneous caspase” program (excitation Wavelength=490 nm, emission wavelength=535 nm). Duplicate wells for each treatment were averaged following background (no cells) subtraction (emission 535 nm value from all experimental emission 535 nm values) for each drug concentration.
(§4) DMSO treatment represented baseline caspase activation in the absence of drug. The percent changes in caspase activity were plotted on the y-axis for each drug treatment.

[5] = tested on: Daoy (glioblastoma); test: MTS cell viability assay, Daoy; conditions: for IC50: Homo sapiens, Daoy, 72 h, read-out: IC50 Daoy
Protocol: as §5, §6

[6] = tested on: A-375 (melanoma); test: MTS cell viability assay, A-375; type: cell-based; conditions: Homo sapiens, 72 h
Protocol: as §1

[7] = tested on: OVCAR-3 (ovarian carcinoma); test: MTS cell viability assay, OVCAR-3; type: cell-based; conditions: Homo sapiens, 72 h
Protocol: as §1

[8] = tested on: MCF-7 (breast carcinoma); test: MTS cell viability assay, MCF-7; type: cell-based; conditions: Homo sapiens, MCF7, 72 h
Protocol: as §1

[9] = tested on: SK-MEL-2 (melanoma)
Protocol: as §5, §6

[10] = tested on: SK-MEL-2, A-375, Daoy, LN-229, OVCAR-3, HT-29, MCF-7 cell lines; type: cell-based
Protocol: as §1

[11] = tested on: SK-MEL-2 cells; test: Caspase activation assay, SK-MEL-2; type: cell-based; conditions: SK-MEL-2, 5, 15, 50 μM, 2-24 h, absence of FBS
Protocol: as §2, §3, §4
Caspase activation assays were conducted to further characterize the mode of cell death. A treatment time and dose at which maximum caspase activation was observed prior to massive cell destruction would be indicative of apoptosis induction. SK-MEL-2 cells were treated with 5, 15, and 50 μM of the compound for 2, 4, 6, 8, 16, and 24 h in the absence of FBS (Fetal Bovine Serum).

[12] = tested on: SK-MEL-2; test: Annexin-V assay (apoptosis versus necrosis); type: cell-based; conditions: cell line not stated; above optimal dose cellular damage and non-apoptotic cell death
Protocol: Cells were plated (8.75×10^5 cells/6 cm. diameter tissue culture plates), the evening before treatment, in 4 mL volume per plate. This cell density is equivalent to the cell density used in the MTS and Caspase assays (1×10^4 cells/well (96-well plate). Drug solutions were prepared, immediately prior to cell treatment, in the same as described for caspase assay
Growth media alone (no DMSO or drug) was added to a plate containing cells to measure the baseline-Annexin-V reactivity and vehicle (DMSO) alone control solutions were also prepared to monitor Annexin-V reactivity from DMSO. Cells were incubated at 37° C. for 8 h. Growth media (3 mL) was removed from each plate and added to a 15 mL conical tube containing 0.333 mL FCS (final FCS concentration of 10%). The media was saved to include any apoptotic/dead cells that may have detached from the plate during drug treatment. FCS was added to the media to prevent further cell damage and improve the efficiency of cell pelleting during subsequent centrifugation steps (empirical observation). Adherent cells were rinsed once with PBS and 1 mL of trypsin was added. Plates were rotated several times to assure coating of the entire surface with trypsin which was then removed. Plates were incubated at 37° C. for 4-5 min. Trypsinized cells were re-suspended in the saved media for each sample. Cell suspension was placed back into 15 mL tubes, which were then cooled on ice. Cells were re-suspended by pipetting 7-8 times. The tubes were centrifuged at 130×g for 5 min at 4° C. The resulting cell pellets were re-suspended in the ice cold 1 mL of 1× Nexin Buffer (Guava Nexin kit, Guava Technologies) and transferred to 1.5 mL conical microcentrifuge tubes to rinse cells with residual growth media. This procedure was repeated by centrifugation of cells at 130×g for 5 min, at 4° C. Re-suspension of the resulting cell pellet in 50 μL Nexin Staining Solution (Guava Nexin kit, Guava Technologies) was followed by incubation on ice, in the dark, for 20 min. Guava Samples were analyzed immediately on the Guava flow cytometer, using the Guava Nexin software package (see Guava user's manual and Guava Nexin kit protocol on data acquisition and analysis protocols).

[13] = tested on: Daoy (glioblastoma)
Protocol: as §5, §6

SMILES | IC50 [1] [µg/mL] | IC50 [2] [µg/mL] | IC50 [3] [µg/mL] | caspase activation in Daoy ([4]; Daoy, percent change versus DMSO) | selectivity of apoptosis activation, Daoy versus SK-MEL-2 (in words) ([4]; caspase assay, Daoy in preference to SK-MEL-2) | IC50 [5] [µg/mL] | selectivity of cytotoxicity for Daoy (in words) ([5]; MTS assay, Daoy versus other cell lines) | IC50 [6] [µg/mL] | IC50 [7] [µg/mL] | IC50 [8] [µg/mL] | improvement in cytotoxicity relative to betulinic acid 1 in SK-MEL-2 [9] | cytotoxic potency across the cell line panel (in words) [10] | caspase activating property compared with betulinic acid (1) [11] | selective apoptosis and dose dependence (in words) [12] | improvement in cytotoxicity relative to betulinic acid 1 in Daoy [13]
C=C(C)[C@@H]1CC[C@]2(COC(=O)CBr)CC[C@]3(C)[C@H](CC[C@@H]4[C@@]5(C)CC[C@H](O)C(C)(C)[C@@H]5CC[C@]43C)[C@@H]12 [Compound 13, ((1R,3aS,5aR,5bR,7aR,9S,11aR,11bR,13aR,13b R)-9-hydroxy-5a,5b,8,8,11a-pentamethyl-1-(prop-1-en-2-yl)icosahydro-1H-cyclopenta[a]chrysen-3a-yl)methyl 2-bromoacetate] | 10 (≈ 17.7 µM) | 33 (≈ 58.5 µM) | 6 (≈ 10.6 µM) | approx. 200% | selectively activate apoptosis in Daoy in preference to SK-MEL-2 | 1.4 (≈ 2.48 µM) | robust cytotoxic activity in Daoy but not in SK-MEL-2 | 29 (≈ 51.4 µM) | 6 (≈ 10.6 µM) | 45 (≈ 79.8 µM) | – | – | – | – | –
C=C(C)[C@@H]1CC[C@]2(C(=O)O)CC[C@]3(C)[C@H](CC[C@@H]4[C@@]5(C)CC[C@H](OC(=O)/C=C/c6ccc(OC(C)=O)c(OC(C)=O)c6)C(C)(C)[C@@H]5CC[C@]43C)[C@@H]12 [Compound 24, (1R,3aS,5aR,5bR,7aR,9S,11aR,11bR,13aR, 13bR)-9-((E)-3-(3,4-diacetoxyphenyl)acryloyloxy)-5a,5b,8,8,11a-pentamethyl-1-(prop-1-en-2-yl)icosahydro-1H-cyclopenta[a]chrysene-3a-carboxylic acid] | – | – | – | – | – | – | – | – | – | – | greater than 5 fold | – | – | – | –
C=C(C)[C@@H]1CC[C@]2(C(=O)O)CC[C@]3(C)[C@H](CC[C@@H]4[C@@]5(C)CC[C@H](OC(=O)/C=C/c6ccc(O)c(O)c6)C(C)(C)[C@@H]5CC[C@]43C)[C@@H]12 [Compound 25, (1R,3aS,5aR,5bR,7aR,9S,11aR,11bR,13aR, 13bR)-9-((E)-3-(3,4-dihydroxyphenyl)acryloyloxy)-5a,5b,8,8,11a-pentamethyl-1-(prop-1-en-2-yl)icosahydro-1H-cyclopenta[a]chrysene-3a-carboxylic acid] | – | – | – | – | – | – | – | – | – | – | greater than 5 fold | – | – | – | –
C=C(C)[C@@H]1CC[C@]2(COC3CCCCO3)CC[C@]3(C)[C@H](CC[C@@H]4[C@@]5(C)CC6=C(ON(O)C6)C(C)(C)[C@@H]5CC[C@]43C)[C@@H]12 (stereo partly drawn) [Compound 32, (1R,3aS,5aR,5bR,7aR,12aR,12bR,14aR,14bR)-1-isopropenyl-5a,5b,8,8,12a-pentamethyl-3a-[(tetrahydro-2H-pyran-2-yloxy)methyl]-1,2,3,3a,4,5,5a,5b,6,7,7a,8,11,12,12a,12b,13,14, 14a,14b-icosahydro-10H-cyclopenta[7,8]chryseno[3,2-d]isoxazol-10-ol] | 8 (≈ 14.1 µM) | 5 (≈ 8.81 µM) | 6 (≈ 10.6 µM) | – | – | 6 (≈ 10.6 µM) | – | 6 (≈ 10.6 µM) | 6 (≈ 10.6 µM) | 6 (≈ 10.6 µM) | – | potent across the entire cell line panel | more robust caspase activating property than betulinic acid | induced selective apoptosis at an optimal dose | –
C=C(C)[C@@H]1CC[C@]2(CNCCO)CC[C@]3(C)[C@H](CC[C@@H]4[C@@]5(C)CC[C@H](O)C(C)(C)[C@@H]5CC[C@]43C)[C@@H]12 [Compound 69, (1R,3aS,5aR,5bR,7aR,9S,11aR,11bR,13aR,13bR)-3a-((2-hydroxyethylamino)methyl)-5a,5b,8,8,11a-pentamethyl-1-(prop-1-en-2-yl)icosahydro-1H-cyclopenta[a]chrysen-9-ol] | 2 (≈ 4.12 µM) | 5 (≈ 10.3 µM) | – | – | – | < 2 | – | 4 (≈ 8.23 µM) | < 10 | < 10 | greater than 5 fold | potent across the entire cell line panel | – | – | greater than 5 fold
C=C(C)[C@@H]1CC[C@]2(CNCC(=O)OC)CC[C@]3(C)[C@H](CC[C@@H]4[C@@]5(C)CC[C@H](OC(C)=O)C(C)(C)[C@@H]5CC[C@]43C)[C@@H]12 [Compound 72, methyl 2-(((1R,3aS,5aR,5bR,7aR,9S,1iaR,11bR,13aR,13bR)-9-acetoxy-5a,5b,8,8,11a-pentamethyl-1-(prop-1-en-2-yl)icosahydro-1H-cyclopenta[a]chrysen-3a-yl)methylamino)acetate] | > 75 | 6 (≈ 10.8 µM) | > 75 | – | – | 6 (≈ 10.8 µM) | – | 6 (≈ 10.8 µM) | 36 (≈ 64.8 µM) | 75 (≈ 135 µM) | greater than 5 fold | – | – | – | greater than 5 fold
